Among the test systems are EKVX NSCLC; HT29 colon; M14 melanoma; OVCAR-8 ovarian; SF-268 CNS; SF-295 CNS; SK-MEL-2 melanoma; TK-10 renal; HCC-2998 colon; NCI/ADR-RES ovarian.
Assay in all cases: NCI tumour cell line growth inhibition, 48 h

Molecules are shown by their SMILES.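 Grown in 96-well plates, cells were treated for 48 hours with each compound at five concentrations. Insufficient inhibition: endpoint recorded as highest concentration tested. GI50 marks 50% less growth. At the TGI there is no net growth.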

As for `CCOC(=O)c1c2c(n(CC(C)C)c1C)-c1nc[nH]c1C(=O)C2=O`, the GI50 was 15 µM in the test on EKVX NSCLC; 20.4 µM in the test on HT29 colon; 23 µM in the test on M14 melanoma; 15.8 µM in the test with OVCAR-8 ovarian; 15.2 µM with SF-268 CNS; 19.2 µM in the test with SF-295 CNS. For the same molecule, the GI50 with SK-MEL-2 melanoma was 19.4 µM; with TK-10 renal it was 20.5 µM. Also, the TGI with EKVX NSCLC is 28.2 µM; in the test on HT29 colon, 46.5 µM; in the test on M14 melanoma, 40.5 µM; with OVCAR-8 ovarian, 29.3 µM; with SF-268 CNS it was 28.5 µM; in the test on SF-295 CNS it was 35.9 µM. The TGI in the test on SK-MEL-2 melanoma worked out at 34 µM; in the test with TK-10 renal, 36.6 µM.
Consider `Nc1cc(=O)[nH]c(SC2=NC(N)CC(O)C2)n1` (centres undefined), for which the TGI in the test with EKVX NSCLC, in the test with HCC-2998 colon, with HT29 colon, in the test with M14 melanoma, in the test on OVCAR-8 ovarian and in the test on SF-295 CNS was more than 100 µM in each case. For the same molecule, the TGI in the test on SK-MEL-2 melanoma and in the test with TK-10 renal was more than 100 µM in each case.
With `CCCC(O)[C@@H](O)c1ccc2c(c1O)C(=O)c1c(OC)cccc1C2=O` (some centres undefined), the TGI is more than 100 µM with EKVX NSCLC; 68.1 µM in the test on HCC-2998 colon; more than 100 µM in the test on HT29 colon; 69.1 µM in the test with M14 melanoma; more than 100 µM in the test on OVCAR-8 ovarian; more than 100 µM in the test on SF-268 CNS. The TGI in the test with SF-295 CNS, in the test with SK-MEL-2 melanoma and in the test with TK-10 renal was more than 100 µM throughout.
For `COC(=O)CCC(=O)N1Cc2cc(C)ccc2N(C(=O)CCC(=O)OC)Cc2cc(C)ccc21`, the TGI with EKVX NSCLC, with HT29 colon, in the test on M14 melanoma, in the test on OVCAR-8 ovarian, with SF-268 CNS and with SF-295 CNS was more than 100 µM throughout. Further, the TGI in the test on SK-MEL-2 melanoma and in the test on TK-10 renal was more than 100 µM throughout.
`CC12CCC(=O)C=C1CCC1C2CCC2(C)C(C(=O)Cn3cnc4c(=S)nc[nH]c43)CCC12` (centres undefined): the TGI in the test on EKVX NSCLC, with HT29 colon, in the test on M14 melanoma, with NCI/ADR-RES ovarian, in the test on OVCAR-8 ovarian and in the test on SF-268 CNS was more than 100 µM in each case. Moreover, the TGI with SF-295 CNS is 86.7 µM; with SK-MEL-2 melanoma, more than 100 µM; in the test with TK-10 renal it was more than 100 µM.
For the molecule `CCOP(=O)(OCC)C1CCCCOC1=O` (centres undefined), the TGI with EKVX NSCLC, with HCC-2998 colon, in the test on HT29 colon, with M14 melanoma, in the test on OVCAR-8 ovarian and in the test on SF-268 CNS was more than 100 µM throughout. Moreover, the TGI in the test on SF-295 CNS, with SK-MEL-2 melanoma and in the test on TK-10 renal was more than 100 µM in each case.
As for `CCC[CH2][Sn]([CH2]CCC)([O]C(C)=O)[O]C(C)=O`, the GI50 was 1.84 µM in the test on EKVX NSCLC; 1.53 µM in the test on HCC-2998 colon; 1.7 µM with HT29 colon; 1.74 µM in the test on M14 melanoma; 1.9 µM with OVCAR-8 ovarian; 1.23 µM with SF-268 CNS. The GI50 with SF-295 CNS was 1.85 µM; in the test with SK-MEL-2 melanoma, 0.542 µM; in the test on TK-10 renal, 1.38 µM. Further, the TGI turned out to be 4.94 µM in the test with EKVX NSCLC; 2.92 µM with HCC-2998 colon; 3.53 µM in the test on HT29 colon; 4.26 µM with M14 melanoma; 4.6 µM in the test with OVCAR-8 ovarian; 4.1 µM in the test with SF-268 CNS. The TGI came to 3.79 µM with SF-295 CNS, 1.95 µM in the test with SK-MEL-2 melanoma and 2.74 µM in the test with TK-10 renal.
In the case of `O=C1C(Cl)=C(N/N=c2/[nH][nH]/c(=N/NC3=C(Cl)C(=O)c4ccccc4C3=O)c3ccccc23)C(=O)c2ccccc21`, the GI50 was 24.9 µM in the test with HT29 colon; 16.9 µM in the test with M14 melanoma; 21.4 µM with NCI/ADR-RES ovarian; 15.4 µM in the test on OVCAR-8 ovarian; 12.2 µM with SF-268 CNS; 14.2 µM in the test on SF-295 CNS. Also, the GI50 with SK-MEL-2 melanoma is 18.1 µM. Besides, the TGI in the test on HT29 colon is 53.6 µM; with M14 melanoma, 34.8 µM; in the test with NCI/ADR-RES ovarian, 73.2 µM; in the test with OVCAR-8 ovarian it was 35 µM; in the test with SF-268 CNS, 29.9 µM; in the test with SF-295 CNS, 30.5 µM. Also, the TGI in the test with SK-MEL-2 melanoma came out at 35.9 µM.
In the case of `C=C1C(=O)OC2CC3(C)C=CC(=O)C(=C)C3CC12` (centres undefined), the TGI was determined as 6.85 µM with EKVX NSCLC; 6.55 µM in the test with HCC-2998 colon; 3.45 µM in the test on HT29 colon; 2.86 µM in the test with M14 melanoma; 4.92 µM in the test with OVCAR-8 ovarian; 6.91 µM with SF-268 CNS. The TGI in the test on SF-295 CNS is 26.8 µM; in the test with SK-MEL-2 melanoma, 3.13 µM; in the test on TK-10 renal, 4.79 µM.
`COc1ccccc1[N-]C(C1=C([O-])c2ccccc2C1=O)c1ccccc1.COc1ccccc1[N-]C(C1=C([O-])c2ccccc2C1=O)c1ccccc1.[Cu+2]` (centres undefined): the GI50 in the test with HT29 colon is 18.2 µM; in the test with M14 melanoma, 4.58 µM; with OVCAR-8 ovarian it was 7.52 µM; with SF-268 CNS, 5.3 µM; in the test on SF-295 CNS, 5.33 µM; in the test on TK-10 renal it was 31.7 µM. The TGI in the test with HT29 colon is more than 100 µM; with M14 melanoma, more than 100 µM; with OVCAR-8 ovarian it was more than 100 µM; in the test with SF-268 CNS, more than 100 µM; with SF-295 CNS, more than 100 µM; with TK-10 renal, 68.3 µM.
Consider `O=C(NCCCCCCNC(=O)c1cccc2ccccc12)c1cccc2ccccc12`, for which the TGI is more than 100 µM in the test with EKVX NSCLC; more than 100 µM in the test with HT29 colon; more than 100 µM with M14 melanoma; more than 100 µM in the test with OVCAR-8 ovarian; 81.9 µM in the test with SF-268 CNS; 3.4 µM in the test on SF-295 CNS. For the same molecule, the TGI in the test on SK-MEL-2 melanoma was found to be 34.5 µM; in the test on TK-10 renal, 36.9 µM.
With `O=C(CC1Sc2ccccc2NC1=O)Nc1cc(Cl)ccc1Cl` (centres undefined), the TGI with EKVX NSCLC, in the test on HCC-2998 colon, in the test with HT29 colon, with M14 melanoma, in the test on OVCAR-8 ovarian and in the test on SF-268 CNS was more than 100 µM throughout. Besides, the TGI in the test with SF-295 CNS, with SK-MEL-2 melanoma and in the test with TK-10 renal was more than 100 µM each time.

Values taken from PubChem BioAssay (NCI).
